Experiment [1] deals with T1, 5-lipoxygenase (Rattus norvegicus, UniProt P12527).
T1 construct: at 3-12×10^7 intact neutrophils per ml; endogenous in cells; host or cells: neutrophils from the pleural exudate of male Wistar-Lewis rats (reversed passive Arthus reaction)
T1 sequence (P12527 1-673): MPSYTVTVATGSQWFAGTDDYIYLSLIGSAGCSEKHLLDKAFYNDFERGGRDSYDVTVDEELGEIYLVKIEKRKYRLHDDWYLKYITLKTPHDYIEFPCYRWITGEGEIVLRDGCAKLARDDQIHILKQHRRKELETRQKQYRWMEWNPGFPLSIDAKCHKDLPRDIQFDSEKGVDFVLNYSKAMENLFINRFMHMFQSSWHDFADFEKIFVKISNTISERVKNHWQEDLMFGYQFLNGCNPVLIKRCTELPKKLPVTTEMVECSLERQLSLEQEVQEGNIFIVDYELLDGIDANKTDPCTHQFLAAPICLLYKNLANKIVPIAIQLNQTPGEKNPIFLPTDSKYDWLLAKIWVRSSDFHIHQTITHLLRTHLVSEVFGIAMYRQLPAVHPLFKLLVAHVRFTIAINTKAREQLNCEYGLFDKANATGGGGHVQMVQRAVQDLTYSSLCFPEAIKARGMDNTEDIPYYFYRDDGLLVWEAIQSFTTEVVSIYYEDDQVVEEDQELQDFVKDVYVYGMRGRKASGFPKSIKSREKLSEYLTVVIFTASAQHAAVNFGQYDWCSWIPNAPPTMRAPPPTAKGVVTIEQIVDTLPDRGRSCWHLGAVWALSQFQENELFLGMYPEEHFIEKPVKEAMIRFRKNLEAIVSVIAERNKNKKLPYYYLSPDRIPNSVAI
As to the kind of experiment: 5-lipoxygenase activity / arachidonic acid metabolism in rat neutrophils. It counts as cell-based. The note with it: compound concentration 5×^10-5 Molar, [14C] arachidonic acid. As to the method: The effect of the compounds of the invention on 5-lipoxygenase activity is determined using rat neutrophils. Male Wistar-Lewis rats are injected intravenously with 5 mg BSA in 0.2 ml pyrogen free saline followed by an intrapleural injection of 500 ug of the IgG fraction of rabbit anti-BSA (Cappel Labs., Lot 17782) in 0.2 ml pyrogen free saline. Injections are made under light ether anesthesia. Four hours later, the pleural cavity exudate consisting of 85 to 95% neutrophils is removed. Neutrophils are isolated from the pleural exudates by centrifugation of 4° C. for 10 min at 200×g. The cell pellet is resuspended in 17 mM Tris HCl buffer, pH 7.2, containing 0.75% NH4 Cl to lyse contaminating erythrocytes followed by centrifugation at 4° C. for 5 min at 200×g. The pelleted neutrophils are rewashed in 50 mM Tris HCl, pH 7.4, containing 100 mM NaCl, followed by the same centrifugation. The cell pellet is resuspended in 50 mM Tris HCl, pH 7.4, containing 100 mM NaCl and 1 mM CaCl2, at 3-12×10^7 intact neutrophils per ml.
Solutions of compounds in methanol are dried, then resuspended in the cell suspension for 4 min. Arachidonic acid metabolism is determined by incubating 0.1 ml of this suspension with 40 uM [×^14 C] arachidonic acid (AA) (Amersham, 59 Ci/mole), in the presence of 0.1% BRIJ 56 and 10 uM A23187. Arachidonic acid metabolism as well as the various drug and reagent abbreviations are described in detail in Arch. Dermatol, Vol. 119, pages 541 to 547 (July 1983), the teachings of which are incorporated herein by reference. Assays run in triplicate are initiated by adding cells with inhibitor to a film of the BRIJ 56, arachidonic acid and A23187 at 37° C. After one minute, reactions are terminated by the addition of 2.4 ml of a chloroform:methanol (1:1 v/v) mixture and 0.9 ml of 0.1% formic acid. […] Products, leukotriene B4 (LTB4), 12-hydroxy heptadecatrienoic acid (HHT) and 5-hydroxy icosatetraenoic acid (5-HETE), are located by autoradiography and appropriate regions of the thin layer plates are scraped and counted in a liquid scintillation counter. […]

The subject of experiment [2] is pleural cavity of rats. The experiment in a line: reverse passive Arthus reaction in the pleural cavity of rats. In kind it is in vivo. The following applies: po, rat pleural cavity RPAR. The source says:
Another procedure for testing for acute antiinflammatory activity measures the reverse passive Arthus reaction in the pleural cavity of rats as described in Myers et al., Inflammation, Vol. 9, No. 1, 1985, pp. 91-98.

Experiment [3] concerns Male Lewis inbred albino rats. As to the kind of experiment: Reversed Passive Arthus Reaction (RPAR), paw volume. It counts as in vivo. The note with it: po, rat paw RPAR. As to the method: Reversed Passive Arthus Reaction (RPAR) Animals, Materials and Methods
Male Lewis inbred albino rats weighing 180-220 grams obtained from Charles River Breeding Laboratories are used in these experiments. The rats are housed 3 animals/cage and food and water are allowed ad libitum.
The animals are numbered 1-3 in each cage and color marked for identification purposes.
All reagents and drugs are prepared just prior to the study. Crystallized and lyophilized bovine serum albumin (BSA), obtained from Sigma Chemical Company, is solubilized without shaking in cold sterile pyrogen free saline (10 mg/ml). Lyophilized anti-bovine serum albumin (IgG Fraction), obtained from Cappel Laboratories, is suspended in sterile distilled water and diluted with cold pyrogen free saline (PFS) just prior to use. The final concentration of anti-bovine serum albumin is 0.5 mg/ml of PFS. Both BSA and anti-BSA solutions are iced during use. Drugs are suspended or solubilized in an aqueous solution of methyl cellulose (MC) with a homogenizer just prior to administration.
Groups of animals (6/group) are dosed with drug in MC by gavage one hour prior to sensitization with BSA. […] The volume of mercury displaced is converted to weight and recorded. […] Paw volumes are also recorded with a plethysmograph during the development of the inflammation at 2 and 4 hours post-challenge.

On to `O=c1c2c(c3cccnc3n1-c1ccccc1)N(c1ccccc1)CC2` [1,2,3,5-tetrahydro-1,5-diphenyl-4H-pyrrolo[3,2-c][1,8]napthyridin-4-one], for which, in experiment [1], the “inhibition of HETE production” value is on record as ~60%, the “inhibition of HHT production” value is listed as “about 40%” and the “inhibition of LTB4 production” value is given as ~60%.
`O=c1c2c(c3cccnc3n1-c1ccccc1)NCC2` [1,2,3,5-tetrahydro-5-phenyl-4H-pyrrolo[3,2-c][I, 8]napthyridin-4-one]: the values for the ED50 in experiment [2] and in experiment [3] were < 25 mg/kg and ~25 mg/kg, respectively.
For the compound `CCOC(=O)N1CCc2c1c1cccnc1n(-c1ccccc1)c2=O` [2,3,4,5-tetrahydro-4-oxo-5-phenyl-1H-pyrrolo[3,2-c][1,8]napthyridine-1-carboxylic acid, ethyl ester], in experiment [2], the ED50 is ~25 mg/kg.

As usually defined, the ED50 is the dose that gives a 50% effect, or the effect in half of the subjects. A lower ED50 goes with greater potency.
